# Measurements reported in patent US8871794B2, “Small-molecule agonists for type-2 orexin receptor” (Board of Regents, The University of Texas System, priority 2008, dated 2014).
# Where two headings read alike, the source gives them in different places.
# Experiments:
# GRP receptor = molecular target: T1, GRP receptor (Homo sapiens, UniProt P30550); assay: Intracellular Calcium Transient Assay in CHO cells expressing control GRP receptor; type: cell-based; conditions: cells expressing an unrelated Gq-coupled GPCR (GRP receptor)
# T1 construct: Open reading frames of OX1R, OX2R and GRP (control) receptor were inserted into a bicistronic retrovirus expression vector; expressed in transfected cells; host or cells: CHO cells harboring ecotropic retroviral receptor, infected with retrovirus and selected with puromycin
# Method: (§1) DNA Construction: Open reading frames of OX1R, OX2R and GRP (control) receptor were inserted into a bicistronic retrovirus expression vector, pMXs-IRES-puror (pMXs-IP), which carried a FLAG™ epitope cDNA sequence at the beginning of the ORF sequences encoding their human polypeptides.
# (§2) Transfection and retrovirus production: Transfection was carried out using FuGENE 6 (Roche Diagnostics Corp.) according to the manufacturer's recommendations. Retroviruse fluid was harvested after 48 hours post transfection.
# (§3) Cell lines: To generate receptor expressing cells, CHO cells harboring ecotropic retroviral receptor were infected with a retroviral supernatant. After 24 hours post infection, the retrovirus supernatant was removed and infected cells were selected with 10 μg/ml of puromycin (Sigma-Aldrich, St. Louis, Mo.). […]
# (§4) 0.5 ml aliquot of the cell suspension was stimulated by addition of 5 μl of compound dissolved in DMSO. Changes of [Ca^2+]i transients in cells were measured at RT by using CAF-110 Intracellular Ion Analyser (JASCO, Tokyo) with the excitation wave lengths of 340 nm and 380 nm and emission wavelength of 500 nm
# [1] = Metabolism in mouse CD-1 S9 fractions (phase I, phase I+II); type: in vitro ADME; conditions: for half-life at 2 μM: CD-1, mouse, S9 fractions (hepatocyte S9)
# Method: Metabolism: 2 μM Yan7874 was incubated in 1 ml 0.1 M Tris/0.5% NaHCO3/3 mm MgCl2 solution with 1 mg mouse CD-1 S9 protein (In Vitro Technologies, Baltimore, Md.) at 37° C. Cofactors necessary for phase I and II metabolism were added as recommended by In Vitro Technologies (phase I: 1.7 mg/ml NADP, 7.8 mg/ml glucose-6-phophate, 6 U/ml glucose-6-phosphate dehydrogenase; phase II additionally add 1.9 mg/ml uridine 5′-diphospho-α-D-glucuronic acid and 100 μg/ml 3′-phosphoadenosine-5′-phophosulphate). Protein was precipitated by the addition of 1 volume of methanol. Samples in 50:50 buffer:methanol+0.1% added formic acid were analyzed as follows. An analytical method was developed to detect Yan7874 using LC/MS/MS. […] The fraction of parent compound remaining was plotted over time and a curve fit to the data. The time at which 50% of compound remains is designated the in vitro half-life.
# OX2R [2] = molecular target: T2, OX2R (Homo sapiens, UniProt O43614); assay: Intracellular Calcium Transient Assay in OX2R-expressing CHO cells; type: cell-based; set-up: expressed in transfected cells
# T2 sequence (O43614 1-444): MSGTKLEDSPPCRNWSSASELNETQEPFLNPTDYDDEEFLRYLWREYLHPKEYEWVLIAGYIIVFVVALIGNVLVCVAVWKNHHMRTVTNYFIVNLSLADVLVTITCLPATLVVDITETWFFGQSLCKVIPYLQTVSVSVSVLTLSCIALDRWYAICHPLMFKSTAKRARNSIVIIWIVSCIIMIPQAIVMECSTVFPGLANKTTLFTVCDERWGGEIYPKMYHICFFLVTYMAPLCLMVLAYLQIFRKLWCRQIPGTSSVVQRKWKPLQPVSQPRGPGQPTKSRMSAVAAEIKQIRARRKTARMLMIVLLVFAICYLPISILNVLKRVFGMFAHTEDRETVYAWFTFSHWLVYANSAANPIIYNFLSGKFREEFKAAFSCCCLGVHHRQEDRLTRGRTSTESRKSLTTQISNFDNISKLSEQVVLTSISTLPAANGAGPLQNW
# Method: as §1, §2, §3, §4
# OX2R [3] = molecular target: T2, OX2R; assay: CRE reporter assay, OX2R; type: cell-based; set-up: expressed in transfected cells; host or cells: HEK293T cells, transient co-transfection
# T1 sequence (P30550 whole entry): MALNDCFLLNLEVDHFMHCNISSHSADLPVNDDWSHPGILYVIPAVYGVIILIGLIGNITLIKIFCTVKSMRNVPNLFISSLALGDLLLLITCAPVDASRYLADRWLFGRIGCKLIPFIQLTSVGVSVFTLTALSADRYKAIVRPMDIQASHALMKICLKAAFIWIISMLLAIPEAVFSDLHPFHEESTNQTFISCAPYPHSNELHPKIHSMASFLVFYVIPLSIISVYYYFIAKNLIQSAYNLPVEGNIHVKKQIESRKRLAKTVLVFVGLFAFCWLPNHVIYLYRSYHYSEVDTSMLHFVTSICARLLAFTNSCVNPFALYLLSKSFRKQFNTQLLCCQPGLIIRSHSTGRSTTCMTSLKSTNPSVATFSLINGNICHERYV
smiles,measurement,setting,value
Cc1ccc(Cn2c(=N)n(CC(O)c3ccc(Cl)c(Cl)c3)c3ccccc32)cc1 (stereo not shown) [Compound 130699],Ca2+ response,GRP receptor,no response
same,stability in vitro using hepatocyte S9 fractions,"[1]; 2 μM, mouse CD-1 S9, 37° C.",relatively stable
same,half-life at 2 μM,"[1]; Phase I+II, read-out: half-life for in vitro combined Phase I+II metabolism in S9 fractions",0.933 h
same,half-life at 2 μM,"[1]; Phase I, read-out: half-life for in vitro Phase I metabolism in S9 fractions",1.13 h
same,Ca2+ response,OX2R [2],robust Ca2+ response
same,reporter activation in a distinct CRE reporter system,OX2R [3],confirmed reporter activation
same,"Fold Induction, OX2R_CRE",OX2R [3]; CRE reporter,5.1935
